Data on 2 compounds can be found in patent US8106067B2, “Indolizine derivatives and the use thereof as antidiabetics” (Merck Patent GmbH, priority 2006, dated 2012).

One assay deals with T1, SGLT1 (Homo sapiens, UniProt P13866).
T1 construct: expressed in transfected cells
T1 sequence (P13866 1-664): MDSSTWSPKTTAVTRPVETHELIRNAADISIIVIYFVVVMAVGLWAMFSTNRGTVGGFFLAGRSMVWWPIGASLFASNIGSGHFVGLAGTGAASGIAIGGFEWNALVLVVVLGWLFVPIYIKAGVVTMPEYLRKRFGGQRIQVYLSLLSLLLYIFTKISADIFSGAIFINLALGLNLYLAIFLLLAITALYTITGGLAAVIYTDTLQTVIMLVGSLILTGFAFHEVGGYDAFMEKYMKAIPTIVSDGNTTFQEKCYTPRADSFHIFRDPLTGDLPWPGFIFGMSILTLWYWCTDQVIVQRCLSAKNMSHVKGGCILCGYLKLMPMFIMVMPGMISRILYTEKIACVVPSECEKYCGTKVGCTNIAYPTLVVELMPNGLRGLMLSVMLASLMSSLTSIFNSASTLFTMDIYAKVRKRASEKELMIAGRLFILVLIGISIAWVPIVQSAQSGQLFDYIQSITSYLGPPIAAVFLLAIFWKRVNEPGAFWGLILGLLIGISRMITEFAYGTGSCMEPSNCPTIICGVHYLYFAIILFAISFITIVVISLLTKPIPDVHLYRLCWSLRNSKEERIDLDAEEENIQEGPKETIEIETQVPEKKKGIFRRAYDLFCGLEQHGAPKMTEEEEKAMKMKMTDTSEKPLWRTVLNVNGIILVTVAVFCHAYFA
Description: 14C-AMG uptake in BHK cells transfected with SGLT1 (96-well cell-based assay). The settings on record: 50 μM AMG, 37° C., 90 min. From the text: (§1) The compounds can be tested for their SGLT inhibition properties by means of BHK cells expressing SGLT1 and SGLT2. The production of the cells and the testing can be carried out as described below.
To construct the SGLT1 expression vector (KL225), the SLC5A1 gene (homologous to NM-000343) was amplified from a cDNA library using standard PCR technology and cloned over NheI/XhoI sites into the pcDNA3.1 expression vector (Invitrogen) containing neomycin as a selection marker. In this vector, transcription uses the enhancer/promoter of human cytomegalovirus.
The final vector KL225 together with an additional vector containing a dihydrofolate reductase gene as a selection marker was introduced into cells. […] After growth for 2-3 weeks, the cells were cloned (0.5 cells/well) and the clones were investigated for SGLT expression in radioactivity uptake tests. […]
(§2) BHK cells (transfected with SGLT1 or SGLT2) were seeded into 96-well microtitre plates (Cultureplates, Perkin Elmer). […] The radioactivity was counted in a Topcount microplate scintillation counter (Perkin Elmer). The non-specific uptake was determined in sodium-free assay buffer (266 mM sucrose, 2 mM KCl, 1 mM CaCl2, 1 mM MgCl2, 10 mM HEPES, 5 mM Tris, adjusted to pH 7.4 using 1 M KOH).

Another assay concerns the target T2, SGLT2 (Homo sapiens, UniProt P31639).
T2 construct: expressed in transfected cells
T2 sequence (P31639 1-672): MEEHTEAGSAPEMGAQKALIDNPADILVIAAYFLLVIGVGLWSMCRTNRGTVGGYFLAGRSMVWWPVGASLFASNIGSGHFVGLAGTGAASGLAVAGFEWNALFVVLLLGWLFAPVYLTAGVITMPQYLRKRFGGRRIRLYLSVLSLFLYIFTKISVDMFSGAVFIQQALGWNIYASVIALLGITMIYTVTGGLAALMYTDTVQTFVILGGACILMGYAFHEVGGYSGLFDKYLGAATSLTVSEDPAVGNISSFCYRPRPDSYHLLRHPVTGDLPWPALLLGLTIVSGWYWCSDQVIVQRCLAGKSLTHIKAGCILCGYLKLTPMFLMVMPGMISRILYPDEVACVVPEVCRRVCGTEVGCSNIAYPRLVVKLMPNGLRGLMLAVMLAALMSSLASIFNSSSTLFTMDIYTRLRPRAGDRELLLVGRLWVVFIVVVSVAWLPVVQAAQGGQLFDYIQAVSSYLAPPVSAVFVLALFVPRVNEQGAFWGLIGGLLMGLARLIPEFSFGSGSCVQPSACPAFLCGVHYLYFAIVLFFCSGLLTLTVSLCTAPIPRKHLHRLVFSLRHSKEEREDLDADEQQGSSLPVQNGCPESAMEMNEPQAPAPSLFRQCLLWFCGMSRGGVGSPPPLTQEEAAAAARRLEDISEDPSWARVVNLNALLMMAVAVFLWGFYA
Kind of assay: 14C-AMG uptake in BHK cells transfected with SGLT2 (96-well cell-based assay). The settings on record: 2 mM AMG, 37° C., 90 min.
Text: as §1
To construct the SGLT2 expression vector (KL224), the SLC5A2 gene (homologous to NM_003041) was amplified from a cDNA library using standard PCR technology and cloned over NheI/XhoI sites into PCI-neo expression vector (Promega) containing neomycin as a selection marker. In this vector, transcription uses the enhancer/promoter of human cytomegalovirus and the SV40 polyadenylation signal.
The final vector KL224 together with an additional vector containing a dihydrofolate reductase gene as a selection marker was introduced into cells. […] After growth for 2-3 weeks, the cells were cloned (0.5 cells/well) and the clones were investigated for SGLT expression in radioactivity uptake tests. […]
as §2

The IC50 is the concentration at which inhibition is half-maximal. Lower therefore signals greater potency in that assay. `Cc1cccc(C)c1Nc1c(-c2ccccc2OCC(N)=O)c(C#N)c2ccccn12` [Compound A2, 2-{2-[1-Cyano-3-(2,6-dimethylphenylamino)indolizin-2-yl]phenoxy}acetamide]: the values for the IC50 at SGLT1 and on SGLT2 were 1000 to 10000 nM and 10 to 1000 nM, respectively.

Consider `COc1cccc(OCC(N)=O)c1-c1c(C#N)c2ccccn2c1Nc1c(C)cccc1C` [Compound A1, 2-{2-[1-cyano-3-(2,6-dimethylphenylamino)indolizin-2-yl]-3-methoxyphenoxy}acetamide], for which the half-maximal inhibitory concentration (IC50) at SGLT1 fell in the range of 1000 to 10000 nM; against SGLT2, 10 to 1000 nM.
